In EP1333824B1, “TREATMENT OF SEXUAL DYSFUNCTION WITH BOMBESIN RECEPTOR ANTAGONISTS” (Warner-Lambert Company LLC, priority 2000, dated 2002):

Key:
human NMB receptor (BB1) = target: T1, human NMB receptor (BB1) (Homo sapiens, UniProt P28336); assay: BB1 binding assay ([125I][Tyr4]bombesin, CHO-K1 cell membranes)
T1 construct: expressed in transfected cells
Experimental: (§1) In the following experiments, measurement of BB1 and BB2 binding was as follows. […] The final pellet was resuspended in assay buffer to a final cell concentration of 1.5 × 10^5/mL. […] Nonspecific binding was defined by 1µM bombesin. […] Radioactivity bound was determined using a gamma counter.
(§2) All competition data was analysed using nonlinear regression utilizing iterative curve-plotting procedures in Prism® (GraphPad Software Inc., San Diego, USA).

conscious male rat = assay: Penile intracavernosal pressure in the conscious male rat (telemetry); assay type: in vivo
Experimental: In addition to treating women with FSD, bombesin antagonists will be useful in treating male erectile dysfunction (MED. Both the non-selective BB1/2 antagonists (Compound 1; 10mg/kg sc) and the selective BB1 receptor antagonist (Compound 3; 15mg/kg sc) is pro-erectile in a conscious rat model of penile erection (Figures 24 and 25). Erectile responses were recorded by measuring intracavernosal pressure using surgically implanted telemetric device. The specific details the surgical procedures, data acquisition and analysis can be found in detail in Bemabe 1999.
Compound 1 and compound 3 were dissolved in 50% β-cyclodextrin in saline. They were administered at a dose of 15mg/kg subcutaneously (sc). […] These increases equate to penile erection. Both Compounds 1 and 3 induced a number of erections in a similar manner to those observed with apomorphine or melanotan-II - both of which are clinically proven agents that are effective in the treatment of MED. Moreover the amplitude of the increases observed were similar to those observed with apomorphine or melanotan-II. The mechanism of action is thought to be similar to the effects on female genital flow ie CNS potentiation of the descending neuronal pathways that control penile erection.

[1] = test system: Female New Zealand rabbits; assay: Pelvic nerve-stimulated female genital blood flow, anaesthetised rabbit model of sexual arousal; assay type: in vivo
Experimental: Female New Zealand rabbits (~2.5kg) were pre-medicated with a combination of Medetomidine (Domitor®) 0.5ml/kg i.m., and Ketamine (Vetalar®) 0.25ml/kg i.m. whilst maintaining oxygen intake via a face mask. The rabbits were tracheotomised using a Portex™ uncuffed endotracheal tube 3 ID., connected to ventilator and maintained at a ventilation rate of 30-40 breaths per minute, with an approximate tidal volume of 18-20 ml, and a maximum airway pressure of 10 cm H2O. Anaesthesia was then switched to Isoflurane and ventilation continued with O2 at 21/min. The right marginal ear vein was cannulated using a 23G or 24G catheter, and Lactated Ringer solution perfused at 0.5ml/min. The rabbit was maintained at 3% Isoflurane during invasive surgery, dropping to 2% for maintenance anaesthesia.
The left groin area of the rabbit was shaved and a vertical incision was made approximately 5cm in length along the thigh. The femoral vein and artery were exposed, isolated and then cannulated with a PVC catheter (17G) for the infusion of drugs and compounds. Cannulation was repeated for the femoral artery, inserting the catheter to a depth of 10cm to ensure that the catheter reached the abdominal aorta. This arterial catheter was linked to a Gould system to record blood pressure. Samples for blood gas analysis were also taken via the arterial catheter. Systolic and diastolic pressures were measured, and the mean arterial pressure calculated using the formula (diastolic x2 + systolic) ö3. Heart rate was measured via the pulse oxymeter and Po-ne-mah data acquisition software system (Ponemah Physiology Platform, Gould Instrument Systems Inc). A ventral midline incision was made into the abdominal cavity. The incision was about 5cm in length just above the pubis. The fat and muscle was bluntly dissected away to reveal the hypogastric nerve which runs down the body cavity. It was essential to keep close to the side curve of the pubis wall in order to avoid damaging the femoral vein and artery which lie above the pubis. The sciatic and pelvic nerves lie deeper and were located after further dissection on the dorsal side of the rabbit. Once the sciatic nerve is identified, the pelvic nerve was easily located. The term pelvic nerve is loosely applied; anatomy books on the subject fail to identify the nerves in sufficient detail. However, stimulation of the nerve causes an increase in vaginal and clitoral blood flow, and innervation of the pelvic region. The pelvic nerve was freed away from surrounding tissue and a Harvard bipolar stimulating electrode was placed around the nerve. […] A frequency response curve was determined at the start of each experiment in order to determine the optimum frequency to use as a sub-maximal response, normally 4Hz. […]

human GRP receptor (BB2) = target: T2, human GRP receptor (BB2) (Homo sapiens, UniProt P30550); assay: BB2 binding assay ([125I][Tyr4]bombesin, CHO-K1 cell membranes)
T2 construct: expressed in transfected cells
Experimental: as §1, §2

[2] = Table 7, N-terminal sulfonamide derivatives

T1 sequence (P28336 whole entry): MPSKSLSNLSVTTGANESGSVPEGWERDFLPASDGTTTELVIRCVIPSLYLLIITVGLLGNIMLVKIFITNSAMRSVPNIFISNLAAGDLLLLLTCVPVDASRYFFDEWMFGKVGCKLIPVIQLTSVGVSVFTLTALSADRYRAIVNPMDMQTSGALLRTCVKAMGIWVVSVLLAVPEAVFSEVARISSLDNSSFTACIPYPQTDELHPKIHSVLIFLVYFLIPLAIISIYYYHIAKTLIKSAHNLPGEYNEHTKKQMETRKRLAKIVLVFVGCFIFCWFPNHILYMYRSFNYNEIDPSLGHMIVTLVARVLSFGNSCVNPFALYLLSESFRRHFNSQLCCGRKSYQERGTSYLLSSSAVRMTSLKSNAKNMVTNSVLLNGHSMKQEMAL
T2 sequence (P30550 whole entry): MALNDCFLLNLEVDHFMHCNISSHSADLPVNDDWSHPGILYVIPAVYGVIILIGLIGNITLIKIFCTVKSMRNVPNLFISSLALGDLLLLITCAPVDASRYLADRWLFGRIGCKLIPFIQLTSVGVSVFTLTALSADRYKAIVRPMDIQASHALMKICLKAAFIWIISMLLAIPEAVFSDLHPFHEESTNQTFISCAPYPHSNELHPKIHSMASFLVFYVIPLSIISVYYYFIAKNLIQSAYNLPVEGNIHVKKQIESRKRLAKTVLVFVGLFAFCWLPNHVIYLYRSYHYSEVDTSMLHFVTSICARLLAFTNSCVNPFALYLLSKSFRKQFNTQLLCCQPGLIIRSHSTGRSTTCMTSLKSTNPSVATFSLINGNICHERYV

Q: `C[C@@](Cc1c[nH]c2ccccc12)(NC(=O)c1ccccc1)C(=O)NCC1(c2ccccn2)CCCCC1` [Example 32, N-{(S)-2-(1H-Indol-3-yl)-1-methyl-1-[(1-pyridin-2-yl-cyclohexylmethyl)-carbamoyl]-ethyl}-benzamide] was tested. Which IC50 (human NMB receptor (BB1); Table 3, N-acyl derivatives) did it give?
A: Its IC50 is 2500 nM.

Q: With `C[C@@](Cc1c[nH]c2ccccc12)(NC(=O)Nc1ccc([N+](=O)[O-])cc1)C(=O)NCC1(c2ccc(N)cc2)CCCCC1` [Compound 3, (2S)-N-{[1-(4-aminophenyl)cyclohexyl]methyl}-3-(1H-indol-3-yl)-2-methyl-2-{[(4-nitroanilino)-carbonyl]amino}propanamide] as the compound, how does the “erectile response (penile erection)” value (conscious male rat; Compound 1 10mg/kg sc, Compound 3 15mg/kg sc) read?
A: The value was “pro-erectile”.

Q: And the intracavernosal pressure (conscious male rat; one hour after 10mg/kg sc Compound 1, 45 minutes after 15mg/kg sc compound 3)?
A: Its intracavernosal pressure is “significant increases in intracavernosal pressure”.

Q: What about the “basal genital blood flow in the absence of PNS” value ([1]; 15mg/kg sc) of the same compound?
A: Its value is “no effect”.

Q: What about the “pelvic-nerve stimulated (PNS) increases in genital (vaginal and clitoral) blood flow” value ([1]; 15mg/kg sc in 50% β-cyclodextrin in saline) of the same compound?
A: The value was “potent enhancer”.

Q: `Cc1ccc(C(=O)N[C@@](C)(Cc2c[nH]c3ccccc23)C(=O)NCC2(c3ccccn3)CCCCC2)cc1` [Example 33, N-{(S)-2-(1H-Indol-3-yl)-1-methyl-1-[(1-pyridin-2-yl-cyclohexylmethyl)-carbamoyl]-ethyl}-4-methyl-benzamide] was tested. Which IC50 (human NMB receptor (BB1); Table 3, N-acyl derivatives) did it give?
A: Its IC50 is 2500 nM.

Q: What does the source list for “(S)-3-(1H-Indol-3-yl)-2-methyl-2-(nitro-trifluoromethyl-benzenesulfonylamino)-N-(1-pyridin-2-yl-cyclohexylmethyl)-propionamide [Example 167]”?
A: IC50 (human GRP receptor (BB2); [2]): > 10000 nM; IC50 (human NMB receptor (BB1); [2]): 758 nM

Q: How did the IC50 (human GRP receptor (BB2); Table 3, N-acyl derivatives) turn out when `CN(C)c1cccc(C(=O)N[C@@](C)(Cc2c[nH]c3ccccc23)C(=O)NCC2(c3ccccn3)CCCCC2)c1` [Example 42, Dimethylamino-N-{(S)-2-(1H-indol-3-yl)-1-methyl-1-[(1-pyridin-2-yl-cyclohexyl-methyl)-carbamoyl]-ethyl}-benzamide] was run?
A: Its IC50 is over 10000 nM.

Q: What about the IC50 (human NMB receptor (BB1); Table 3, N-acyl derivatives) of the same compound?
A: Its IC50 is 2520 nM.
